Measurements taken from patent publication US20240293413A1, “COMPOUND AND METHOD FOR TREATING CHEMOTHERAPY-RELATED GASTROINTESTINAL SIDE EFFECTS” (ONQUALITY PHARMACEUTICALS CHINA LTD., priority 2021, published 2024).

Columns and labels:
Assay type in all cases: in vivo
[1] = tested on: diarrhea caused by a chemotherapeutic agent in Balb/c mice; test: Examples 230-271 (Table 4): oral CDK inhibitor, relief of diarrhea caused by a chemotherapeutic agent
Excerpt: Balb/c mice were fed for 1 week, and then divided into groups. The experiment was divided into a control group, a chemotherapeutic agent group, and a CDK inhibitor group, each of which comprised 10 mice, to perform the administration experiment, for which the administration dosage, mode, time and frequency were shown in Table 4. The control group: being intragastrically administered with the same solvent as that used in the CDK inhibitor group (the time was shown in Table 4), and then being injected/intragastrically administered with the same solvent as that used in the chemotherapeutic agent group (the administration mode was shown in Table 4): the chemotherapeutic agent group: being intragastrically administered with the same solvent as that used in the CDK inhibitor group (the time was shown in Table 4), and then being injected/intragastrically administered with the chemotherapeutic agent (the type, administration mode and dosage were shown in Table 4): the CDK inhibitor group: being intragastrically administered with the CDK inhibitor (the time was shown in Table 4), and then being administered with the chemotherapeutic agent (the mode and dosage were shown in Table 4).
The diarrhea grading of mice was observed and recorded every day.

[2] = tested on: Chemotherapeutic agent-caused constipation models of Balb/c mice; test: Examples 272-342 (Table 5): oral CDK inhibitor, relief of constipation caused by a chemotherapeutic agent;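 also: percent of treated mice relieved versus chemotherapy group by feces reduction rate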
Outline: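 Balb/c mice, 10 per group: control, chemotherapeutic agent alone, or intragastric CDK inhibitor followed by the chemotherapeutic agent. Feces produced within 3 hours were recorded daily, and feces reduction rate (%) was calculated relative to the control group.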

[3] = tested on: diarrhea caused by the continuous administration of a chemotherapeutic agent in Balb/c mice; test: Examples 444-469 (Table 9): oral CDK inhibitor, diarrhea caused by continuous administration of a chemotherapeutic agent
Excerpt: Balb/c mice were fed for 1 week, and then divided into groups. The experiment was divided into a control group, a chemotherapeutic agent group, and a CDK inhibitor group, each of which comprised 10 mice, to perform the administration experiment, for which the administration dosage, mode, time and frequency were shown in Table 9. The control group: being intragastrically administered with the same solvent as that used in the CDK inhibitor group (the time was shown in Table 9), and then being injected/intragastrically administered with the same solvent as that used in the chemotherapeutic agent group (the administration mode was shown in Table 9): the chemotherapeutic agent group: being intragastrically administered with the same solvent as that used in the CDK inhibitor group (the time was shown in Table 9), and then being injected/intragastrically administered with the chemotherapeutic agent (the type, administration mode, dosage and duration time were shown in Table 9): the CDK inhibitor group: being intragastrically administered with the CDK inhibitor (the time was shown in Table 9), and then being administered with the chemotherapeutic agent (the type, administration mode, dosage and duration time were shown in Table 9).
The scoring of diarrhea can refer to the method of Akinobu Kurita (Cancer Chemother Pharmacol 2000: 46:211-20.), Grade 0: normal feces: Grade 1: mild diarrhea, the stools is slightly wet and soft: Grade 2: moderate diarrhea, loose stools and mild perianal contamination: Grade 3: severe diarrhea, watery stools and accompanied by severe perianal staining (see FIG. 1). It is regarded as effective remission when the diarrhea grading of mice in the CDK inhibitor group is reduced compared with the average diarrhea grading of mice in the chemotherapeutic agent group.
The diarrhea grading of mice was observed and recorded every day. At the end of the experiment, the number of mice in the CDK inhibitor group whose diarrhea grading was lower than that of mice in the chemotherapeutic agent group was recorded. Table 9 lists various animal experiment combinations of chemotherapeutic agents and CDK inhibitors, as well as the corresponding experimental results. (Relative remission rate %=the number of mice in the CDK inhibitor group whose diarrhea has been effectively relieved/the total number of mice in the CDK inhibitor group*100%. The establishment rate of diarrhea model in the chemotherapeutic agent group was 50%-80%, that is, about 5-8 of 10 mice developed diarrhea during the experiment, and there were cases of individual mice death or not developing diarrhea.)

Structure (SMILES): CN(C)C(=O)c1cc2cnc(Nc3ccc(N4CCNCC4)cn3)nc2n1C1CCCC1 [Ribociclib]
- Relative remission rate ([1]; Example 243, Methotrexate (MTX) intravenous injection 300 mg/kg single, CDK inhibitor oral 125 mg/kg single, 0.5 h before, cycle 7 days): 80%
- Relative remission rate ([1]; Example 244, Methotrexate (MTX) intravenous injection 300 mg/kg single, CDK inhibitor oral 125 mg/kg single, 4 h before, cycle 7 days): 60%
- Relative remission rate ([1]; Example 245, Methotrexate (MTX) intravenous injection 300 mg/kg single, CDK inhibitor oral 125 mg/kg single, 8 h before, cycle 7 days): 80%
- Relative remission rate ([1]; Example 246, Methotrexate (MTX) intravenous injection 300 mg/kg single, CDK inhibitor oral 125 mg/kg single, 12 h before, cycle 7 days): 40%
- Relative remission rate ([1]; Example 247, Methotrexate (MTX) intravenous injection 300 mg/kg single, CDK inhibitor oral 125 mg/kg single, 24 h before, cycle 7 days): 60%
- Relative remission rate ([1]; Example 248, Methotrexate (MTX) intravenous injection 300 mg/kg single, CDK inhibitor oral 125 mg/kg single, 48 h before, cycle 7 days): 0%
- Relative remission rate ([1]; Example 251, Methotrexate (MTX) intraperitoneal injection 260 mg/kg single, CDK inhibitor oral 200 mg/kg single, 12 h before, cycle 7 days): 50%
- Relative remission rate ([1]; Example 252, Methotrexate (MTX) intraperitoneal injection 260 mg/kg single, CDK inhibitor oral 200 mg/kg single, 48 h before, cycle 7 days): 0%
- Relative remission rate ([1]; Example 269, Vinorelbine (NVB) oral administration 15 mg/kg single, CDK inhibitor oral 100 mg/kg single, 24 h before, cycle 11 days): 50%
- Relative remission rate ([2]; Example 294, Fluorouracil (5-Fu) intravenous injection 225 mg/kg single, CDK inhibitor oral 150 mg/kg single, 0.5 h before, cycle 7 days): 50%
- Relative remission rate ([2]; Example 302, Oxaliplatin intravenous injection 20 mg/kg single, CDK inhibitor oral 150 mg/kg single, 1 h before, cycle 8 days): 50%
- Relative remission rate ([2]; Example 310, Irinotecan (CPT-11) oral administration 300 mg/kg single, CDK inhibitor oral 100 mg/kg single, 20 h before, cycle 11 days): 50%
- Relative remission rate ([2]; Example 325, Gemcitabine and paclitaxel intravenous injection 60 (G) 10 (P) mg/kg single, CDK inhibitor oral 125 mg/kg single, 0.5 h before, cycle 8 days): 50%
- Relative remission rate ([2]; Example 336, Methotrexate (MTX) intravenous injection 300 mg/kg single, CDK inhibitor oral 125 mg/kg single, 0.5 h before, cycle 7 days): 40%
- Relative remission rate ([2]; Example 337, Methotrexate (MTX) intravenous injection 300 mg/kg single, CDK inhibitor oral 125 mg/kg single, 4 h before, cycle 7 days): 40%
- Relative remission rate ([2]; Example 338, Methotrexate (MTX) intravenous injection 300 mg/kg single, CDK inhibitor oral 125 mg/kg single, 8 h before, cycle 7 days): 50%
- Relative remission rate ([2]; Example 339, Methotrexate (MTX) intravenous injection 300 mg/kg single, CDK inhibitor oral 125 mg/kg single, 12 h before, cycle 7 days): 30%
- Relative remission rate ([2]; Example 340, Methotrexate (MTX) intravenous injection 300 mg/kg single, CDK inhibitor oral 125 mg/kg single, 24 h before, cycle 7 days): 60%
- Relative remission rate ([2]; Example 341, Methotrexate (MTX) intravenous injection 300 mg/kg single, CDK inhibitor oral 125 mg/kg single, 48 h before, cycle 7 days): 0%
- Relative remission rate ([3]; Example 456, Fluorouracil (5-Fu) intravenous injection 70 mg/kg once a day, for 3 days, CDK inhibitor oral 200 mg/kg once a day, for 3 days, 4 h before, cycle 8 days): 80%
- relieving effect on diarrhea ([3]; continuous administration of fluorouracil and capecitabine for 7 days or above): not significant
- relieving effect on diarrhea ([3]; continuous administration of fluorouracil for less than 7 days): significant relieving effects
